In patent US5543406A, “Inhibitors of 5-α-testosterone reductase” (priority 1994, dated 1996):

Each compound was assayed against Steroid 5-α-Reductase (assay: Steroid 5-α-reductase in vitro assay, rat prostate microsomes). Details: rat prostatic microsomes; 100 nM [3H]-testosterone, 1 mM NADPH, 60 minutes at 37° C.; read-out: ID50 Rat.
Type: biochemical

| SMILES | IC50 |
| --- | --- |
| CCN(CC)C(=O)[C@H]1CC[C@H]2[C@@H]3CNC4=CC(=O)CC[C@]4(C)[C@H]3CC[C@]12C [Compound 1, 17β-N,N-Diethylcarbamoyl-6-azaandrost-4-en-3-one] | 10 to 100 nM |
| CCN(CC)C(=O)[C@H]1CC[C@H]2[C@@H]3CN(C)C4=CC(=O)CC[C@]4(C)[C@H]3CC[C@]12C [Compound 2, 17β-N,N-Diethylcarbamoyl-6-methyl-6-azaandrost-4-en-3-one] | 10 to 100 nM |
| CC(C)(C)NC(=O)[C@H]1CC[C@H]2[C@@H]3CNC4=CC(=O)CC[C@]4(C)[C@H]3CC[C@]12C [Compound 3, 17β-N-t-Butylcarbamoyl-6-azaandrost-4-en-3-one] | 10 to 100 nM |
| C[C@]12CC[C@H]3[C@@H](CNC4=CC(=O)CC[C@@]43C)[C@@H]1CC[C@@H]2C(=O)Sc1ccccn1 [Compound 4, 17β-(2-Pyridinylthiocarbonyl)-6-azaandrost-4-en-3-one] | 100 to 1000 nM |
| CC(C)CC(=O)[C@H]1CC[C@H]2[C@@H]3CNC4=CC(=O)CC[C@]4(C)[C@H]3CC[C@]12C [Compound 5, 17β-(1-Oxo-3-methylbutyl)-6-azaandrost-4-en-3-one] | 10 to 100 nM |
| CCN(CC)C(=O)[C@H]1CC[C@H]2[C@@H]3CNC4=C(Cl)C(=O)CC[C@]4(C)[C@H]3CC[C@]12C [Compound 8, 17β-N,N-Diethylcarbamoyl-6-azaandrost-4-chloro-4-en-3-one] | 10 to 100 nM |
| CCN(CC)C(=O)[C@H]1CC[C@H]2[C@@H]3CNC4=C(C)C(=O)CC[C@]4(C)[C@H]3CC[C@]12C [Compound 11, 17β-N,N-Diethylcarbamoyl-6-azaandrost-4-methyl-4-en-3-one] | 100 to 1000 nM |
| CC(C)CC(=O)[C@H]1CC[C@H]2[C@@H]3CN(C)C4=CC(=O)CC[C@]4(C)[C@H]3CC[C@]12C [Compound 26, 17β-(1-Oxo-3-methylbutyl)-6-methyl-6-azaandrost-4-en-3-one] | 10 to 100 nM |

Next, values leading:

| IC50 | SMILES |
| --- | --- |
| 10 to 100 nM | CC(C)CC(=O)[C@H]1CC[C@H]2[C@@H]3CNC4=C(Br)C(=O)CC[C@]4(C)[C@H]3CC[C@]12C [Compound 66, 17β-(1-Oxo-3-methylbutyl)-6-azaandrost-4-bromo-4-en-3-one] |
| 100 to 1000 nM | CCN(CC)C(=O)[C@H]1CC[C@H]2[C@@H]3CN(C)C4=C(C)C(=O)CC[C@]4(C)[C@H]3CC[C@]12C [Compound 68, 17β-N,N-Diethylcarbamoyl-6-methyl-6-azaandrost-4-methyl-4-en-3-one] |
| 100 to 1000 nM | CC1=C2N(C)C[C@H]3[C@@H]4CC[C@H](C(=O)NC(C)(C)C)[C@@]4(C)CC[C@@H]3[C@@]2(C)CCC1=O [Compound 69, 17β-N-t-Butylcarbamoyl-6-methyl-6-azaandrost-4-methyl-4-en-3-one] |

The compounds below were run against T1, Steroid 5-α-Reductase (Homo sapiens, UniProt P31213) (assay: Steroid 5-α-reductase in vitro assay, human prostate microsomes (BPH patients)). Details: human prostatic microsomes; 100 nM [3H]-testosterone, 1 mM NADPH, 60 minutes at 37° C.
T1 construct: microsomes derived from prostate tissue of benign prostatic hypertrophy (BPH) patients; from tissue; host or cells: prostate tissue of BPH patients, microsomes
T1 sequence (P31213 1-254): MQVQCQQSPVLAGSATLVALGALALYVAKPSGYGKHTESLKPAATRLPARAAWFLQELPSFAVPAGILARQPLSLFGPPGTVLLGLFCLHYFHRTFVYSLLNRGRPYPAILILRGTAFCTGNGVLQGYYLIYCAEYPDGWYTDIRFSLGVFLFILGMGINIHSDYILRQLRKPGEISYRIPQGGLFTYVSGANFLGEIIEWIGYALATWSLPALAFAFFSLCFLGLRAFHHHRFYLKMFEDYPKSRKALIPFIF
Type: biochemical

| SMILES | IC50 |
| --- | --- |
| CCN(CC)C(=O)[C@H]1CC[C@H]2[C@@H]3CNC4=CC(=O)CC[C@]4(C)[C@H]3CC[C@]12C [Compound 1, 17β-N,N-Diethylcarbamoyl-6-azaandrost-4-en-3-one] | < 10 nM |
| CCN(CC)C(=O)[C@H]1CC[C@H]2[C@@H]3CN(C)C4=CC(=O)CC[C@]4(C)[C@H]3CC[C@]12C [Compound 2, 17β-N,N-Diethylcarbamoyl-6-methyl-6-azaandrost-4-en-3-one] | < 10 nM |
| C[C@]12CC[C@H]3[C@@H](CNC4=CC(=O)CC[C@@]43C)[C@@H]1CC[C@@H]2C(=O)Sc1ccccn1 [Compound 4, 17β-(2-Pyridinylthiocarbonyl)-6-azaandrost-4-en-3-one] | < 10 nM |
| CC(C)CC(=O)[C@H]1CC[C@H]2[C@@H]3CNC4=CC(=O)CC[C@]4(C)[C@H]3CC[C@]12C [Compound 5, 17β-(1-Oxo-3-methylbutyl)-6-azaandrost-4-en-3-one] | < 10 nM |
| CCC1=C2NC[C@H]3[C@@H]4CC[C@H](C(=O)N(CC)CC)[C@@]4(C)CC[C@@H]3[C@@]2(C)CCC1=O [Compound 12, 17β-N,N-Diethylcarbamoyl-6-azaandrost-4-ethyl-4-en-3-one] | 100 to 1000 nM |
| CCN(CC)C(=O)[C@H]1CC[C@H]2[C@@H]3CNC4=C(C#N)C(=O)CC[C@]4(C)[C@H]3CC[C@]12C [Compound 13, 17β-N,N-Diethylcarbamoyl-6-azaandrost-4-cyano-4-en-3-one] | 100 to 1000 nM |
| CCN(CC)C(=O)[C@H]1CC[C@H]2[C@@H]3CNC4=C(CN(C)C)C(=O)CC[C@]4(C)[C@H]3CC[C@]12C [Compound 14, 17β-N,N-Diethylcarbamoyl-6-azaandrost-4-dimethylaminomethylene-4-en-3-one] | 100 to 1000 nM |
| CCN(CC)C(=O)[C@H]1CC[C@H]2[C@@H]3CN(CCCO)C4=CC(=O)CC[C@]4(C)[C@H]3CC[C@]12C [Compound 15, 17β-N,N-Diethylcarbamoyl-6-(3-hydroxypropyl)-6-azaandrost-4-en-3-one] | 100 to 1000 nM |
| CN1C[C@H]2[C@@H]3CC[C@H](C(=O)O)[C@@]3(C)CC[C@@H]2[C@@]2(C)CCC(=O)C=C12 [Compound 25, 17β-Carboxy-6-methyl-6-azaandrost-4-en-3-one] | 100 to 1000 nM |
| C[C@]12CC[C@H]3[C@@H](CNC4=CC(=O)C=C[C@@]43C)[C@@H]1CC[C@@H]2C(=O)NC12CC3CC(CC(C3)C1)C2 [Compound 30, 17β-N-1-Adamantylcarbamoyl-6-azaandrost-1,4-dien-3-one] | < 10 nM |
| CN1C[C@H]2[C@@H]3CC[C@H](C(=O)NC(C)(C)C)[C@@]3(C)CC[C@@H]2[C@]2(C)C1=CC(=O)[C@@H]1C[C@@H]12 [Compound 34, 17β-N-t-Butylcarbamoyl-6-methyl-6-azaandrost-1α,2α-cyclopropyl-4-en-3-one] | 10 to 100 nM |
| CCN(CC)C(=O)[C@H]1CC[C@H]2[C@@H]3CN(C(C)C)C4=CC(=O)CC[C@]4(C)[C@H]3CC[C@]12C [Compound 39, 17β-N,N-Diethylcarbamoyl-6-isopropyl-6-azaandrost-4-en-3-one] | < 10 nM |
| CCN(CC)C(=O)[C@H]1CC[C@H]2[C@@H]3CN(CC(C)C)C4=CC(=O)CC[C@]4(C)[C@H]3CC[C@]12C [Compound 40, 17β-N,N-Diethylcarbamoyl-6-isobutyl-6-azaandrost-4-en-3-one] | 100 to 1000 nM |
| CCN(CC)C(=O)[C@H]1CC[C@H]2[C@@H]3CN(CC4CC4)C4=CC(=O)CC[C@]4(C)[C@H]3CC[C@]12C [Compound 41, 17β-N,N-Diethylcarbamoyl-6-methylenecyclopropyl-6-azaandrost-4-en-3-one] | 100 to 1000 nM |
| C=CCN1C[C@H]2[C@@H]3CC[C@H](C(=O)N(CC)CC)[C@@]3(C)CC[C@@H]2[C@@]2(C)CCC(=O)C=C12 [Compound 42, 17β-N,N-Diethylcarbamoyl-6-allyl-6-azaandrost-4-en-3-one] | 100 to 1000 nM |
| CCN(CC)C(=O)[C@H]1CC[C@H]2[C@@H]3CN(CC(=O)O)C4=CC(=O)CC[C@]4(C)[C@H]3CC[C@]12C [Compound 44, 17β-N,N-Diethylcarbamoyl-6-(2-acetic acid)-6-azaandrost-4-en-3-one] | 100 to 1000 nM |
| CCN(CC)C(=O)[C@H]1CC[C@H]2[C@@H]3CN(CCC(=O)O)C4=CC(=O)CC[C@]4(C)[C@H]3CC[C@]12C [Compound 45, 17β-N,N-Diethylcarbamoyl-6-(3-propanoic acid)-6-azaandrost-4-en-3-one] | 100 to 1000 nM |

Further lines, results first:

| IC50 | SMILES |
| --- | --- |
| 100 to 1000 nM | CCN(CC)C(=O)[C@H]1CC[C@H]2[C@@H]3CN(CCC(=O)OC)C4=CC(=O)CC[C@]4(C)[C@H]3CC[C@]12C [Compound 46, 17β-N,N-Diethylcarbamoyl-6-(methyl-3-propanoate)-6-azaandrost-4-en-3-one] |
| 100 to 1000 nM | CCN(CC)C(=O)[C@H]1CC[C@H]2[C@@H]3CN(CCCC(=O)O)C4=CC(=O)CC[C@]4(C)[C@H]3CC[C@]12C [Compound 47, 17β-N,N-Diethylcarbamoyl-6-(4-butanoic acid)-6-azaandrost-4-en-3-one] |
| 100 to 1000 nM | CCN(CC)C(=O)[C@H]1CC[C@H]2[C@@H]3CN(CCCCC(=O)O)C4=CC(=O)CC[C@]4(C)[C@H]3CC[C@]12C [Compound 48, 17β-N,N-Diethylcarbamoyl-6-(5-pentanoic acid)-6-azaandrost-4-en-3-one] |
| 100 to 1000 nM | CCN(CC)C(=O)[C@H]1CC[C@H]2[C@@H]3CN(CCCCC(=O)OC)C4=CC(=O)CC[C@]4(C)[C@H]3CC[C@]12C [Compound 49, 17β-N,N-Diethylcarbamoyl-6-(methyl-5-pentanoate)-6-azaandrost-4-en-3-one] |
| 100 to 1000 nM | CCN(CC)C(=O)[C@H]1CC[C@H]2[C@@H]3CN(CCCCCC(=O)O)C4=CC(=O)CC[C@]4(C)[C@H]3CC[C@]12C [Compound 50, 17β-N,N-Diethylcarbamoyl-6-(6-hexanoic acid)-6-azaandrost-4-en-3-one] |
| 100 to 1000 nM | CCOC(=O)CCCCCN1C[C@H]2[C@@H]3CC[C@H](C(=O)N(CC)CC)[C@@]3(C)CC[C@@H]2[C@@]2(C)CCC(=O)C=C12 [Compound 51, 17β-N,N-Diethylcarbamoyl-6-(ethyl-6-hexanoate)-6-azaandrost-4-en-3-one] |
| 100 to 1000 nM | CCN(CC)C(=O)[C@H]1CC[C@H]2[C@@H]3CN(CCCN4C(=O)c5ccccc5C4=O)C4=CC(=O)CC[C@]4(C)[C@H]3CC[C@]12C [Compound 52, 17β-N,N-Diethylcarbamoyl-6-(3-phthalimidylpropyl)-6-azaandrost-4-en-3-one] |
| 100 to 1000 nM | CCN(CC)C(=O)[C@H]1CC[C@H]2[C@@H]3CN(CCCCN4C(=O)c5ccccc5C4=O)C4=CC(=O)CC[C@]4(C)[C@H]3CC[C@]12C [Compound 53, 17β-N,N-Diethylcarbamoyl-6-(4-phthalimidylbutyl)-6-azaandrost-4-en-3-one] |
| 100 to 1000 nM | CCN(CC)C(=O)[C@H]1CC[C@H]2[C@@H]3CN(CCOC)C4=CC(=O)CC[C@]4(C)[C@H]3CC[C@]12C [Compound 54, 17β-N,N-Diethylcarbamoyl-6-(2-methoxyethyl)-6-azaandrost-4-en-3-one] |
| 10 to 100 nM | CCN(CC)C(=O)[C@H]1CC[C@H]2[C@@H]3CNC4=C(F)C(=O)CC[C@]4(C)[C@H]3CC[C@]12C [Compound 70, 17β-N,N-Diethylcarbamoyl-6-azaandrost-4-fluoro-4-en-3-one] |
| < 10 nM | C[C@]12CC[C@H]3[C@@H](CNC4=CC(=O)CC[C@@]43C)[C@@H]1CC[C@@H]2C(=O)NC(c1ccccc1)(c1ccccc1)c1ccccc1 [Compound 71, 17β-N-Triphenylmethylcarbamoyl-6-azaandrost-4-en-3-one] |
| < 10 nM | C[C@]12CC[C@H]3[C@@H](CNC4=CC(=O)CC[C@@]43C)[C@@H]1CC[C@@H]2C(=O)Nc1cccc2ccccc12 [Compound 72, 17β-N-1-Napthylcarbamoyl-6-azaandrost-4-en-3-one] |
